In the data set the test system is Yap1 mRNA. The data set is described as follows: Dose-dependent inhibition of human Yap1 in A-431 cells (Example 6, 5,000 cells per well, RTS4814). It counts as cell-based. Particulars: for Yap1 mRNA, % UTC: 48 hours; for % UTC 148 nM / % UTC 444 nM / % UTC 1333 nM / % UTC 4000 nM: approximately 48 hours. As for the experimental part: Modified oligonucleotides described in the studies above were tested at various doses in A-431 cells. Cultured A-431 cells at a density of 5,000 cells per well were treated using free uptake with modified oligonucleotides diluted to concentrations described in the tables below. After approximately 48 hours, Yap1 mRNA levels were measured as previously described using the Human Yap1 primer-probe set RTS4814. Yap1 mRNA levels were normalized to total RNA content, as measured by RIBOGREEN®. Results are presented in the tables below as percent control of the amount of Yap1 mRNA relative to untreated control cells (% UTC). IC50s were calculated using a linear regression on a log/linear plot of the data in excel.

Where [1] appears, read: Table 55, 148 nM, free uptake, A-431 cells 5,000 cells per well, RTS4814.
Where [2] appears, read: Table 55, 444 nM, free uptake, A-431 cells 5,000 cells per well, RTS4814.
The mark [3] stands for this setting: Table 55, 1333 nM, free uptake, A-431 cells 5,000 cells per well, RTS4814.
Where [4] appears, read: Table 55, 4000 nM, free uptake, A-431 cells 5,000 cells per well, RTS4814.
Setting [5] is: Table 55, A-431 cells 5,000 cells per well, free uptake, RTS4814.
The mark [6] stands for this setting: Table 54, A-431 cells, Yap1 mRNA, linear regression on a log/linear plot.
[7] abbreviates: Table 54, A-431 cells, free uptake, 148 nM, RTS4814.
The mark [8] stands for this setting: Table 54, A-431 cells, free uptake, 444 nM, RTS4814.
Setting [9] is: Table 54, A-431 cells, free uptake, 1333 nM, RTS4814.
[10] abbreviates: Table 54, A-431 cells, free uptake, 4000 nM, RTS4814.
The mark [11] stands for this setting: Table 53, A-431 cells, Yap1 mRNA, linear regression on a log/linear plot.
Setting [12] is: Table 53, A-431 cells, free uptake, 148 nM, RTS4814.
Setting [13] is: Table 53, A-431 cells, free uptake, 444 nM, RTS4814.
The mark [14] stands for this setting: Table 53, A-431 cells, free uptake, 1333 nM, RTS4814.
The mark [15] stands for this setting: Table 53, A-431 cells, free uptake, 4000 nM, RTS4814.

Strand notation (5' to 3'): a small letter for the sugar, then the base; units joined by * are phosphorothioate-linked, units joined directly phosphodiester-linked; [ ] holds rarer units or linkages, { } end groups; capitals alone tell only the bases. k = constrained ethyl (cEt); [5mC] = 5-methylcytosine; d = 2'-deoxy (DNA) Bounds are passed on as bounds.

The results in this text go back to patent US11214803B2, “Modulators of YAP1 expression” (Ionis Pharmaceuticals, Inc., priority 2019, dated 2022).

For orientation: IC50 means the point on the concentration scale where inhibition reaches its midpoint. Low values mean greater potency, high ones weaker potency. As for “716524 (antisense kA*k[5mC]*kT*dG*dA*dG*dG*dT*dA*dT*dA*dA*d[5mC]*kT*kG*kG) [compound 716524]”, the “Yap1 mRNA, % UTC” value under setting [1] was found to be 103 % UTC; the “Yap1 mRNA, % UTC” value under setting [2] came out at 92 % UTC; the “Yap1 mRNA, % UTC” value under setting [3] is 96 % UTC; the “Yap1 mRNA, % UTC” value under setting [4] was determined as 62 % UTC. The IC50 under setting [5] was over 4 µM.
Under setting [6], “716577 (antisense kT*k[5mC]*kT*dG*dT*d[5mC]*dA*dG*dT*dT*dA*dT*d[5mC]*k[5mC]*kT*kA) [compound 716577]” came in with an IC50 of over 4 µM. Besides, the “% UTC 148 nM” value under setting [7] is 109 % UTC. The “% UTC 444 nM” value under setting [8] is given as 93 % UTC. Besides, under setting [9], the “% UTC 1333 nM” value is 79 % UTC. The “% UTC 4000 nM” value under setting [10] is 60 % UTC.
In the case of “716500 (antisense kA*kA*k[5mC]*dT*dT*d[5mC]*dT*dT*dA*d[5mC]*dT*dT*d[5mC]*k[5mC]*kA*kA) [compound 716500]”, the “Yap1 mRNA, % UTC” value under setting [1] is 88 % UTC; the “Yap1 mRNA, % UTC” value under setting [2] is 96 % UTC; the “Yap1 mRNA, % UTC” value under setting [3] came to 79 % UTC; the “Yap1 mRNA, % UTC” value under setting [4] was 46 % UTC. Moreover, the half-inhibitory concentration (IC50) under setting [5] is over 4 µM.
Under setting [11], “715523 (kA*kT*k[5mC]*dA*dG*dT*dA*d[5mC]*dT*dG*dG*d[5mC]*d[5mC]*kT*kA*kT; antisense) [compound 715523]” showed a half-maximal inhibitory concentration (IC50) of 3.2 µM. For the same substance, the “% UTC 148 nM” value under setting [12] amounted to 100 % UTC. Besides, the “% UTC 444 nM” value under setting [13] is listed as 62 % UTC. The “% UTC 1333 nM” value under setting [14] was 75 % UTC. In addition, under setting [15], the “% UTC 4000 nM” value is reported as 44 % UTC.
As for “716537 (antisense kA*kT*kG*dT*dG*d[5mC]*dT*d[5mC]*d[5mC]*dA*dT*d[5mC]*dA*kA*k[5mC]*k[5mC]) [compound 716537]”, the “Yap1 mRNA, % UTC” value is reported as 120 % UTC under setting [1], 96 % UTC under setting [2], 88 % UTC under setting [3] and 63 % UTC under setting [4]. This substance displayed a half-inhibitory concentration (IC50) under setting [5] of over 4 µM.
Turning to “716445 (antisense kG*kT*kA*dT*dG*dT*dG*dG*d[5mC]*dA*dA*dT*dA*kA*kT*kT) [compound 716445]”, the IC50 under setting [6] turned out to be 2.6 µM. For the same substance, the “% UTC 148 nM” value under setting [7] is on record as 89 % UTC. In addition, under setting [8], the “% UTC 444 nM” value is 82 % UTC. Besides, under setting [9], the “% UTC 1333 nM” value is 56 % UTC. Further, under setting [10], the “% UTC 4000 nM” value is reported as 44 % UTC.
For the substance “715433 (kT*kG*kT*dT*d[5mC]*dT*dT*dA*dT*dG*dG*dT*dT*kT*kA*kT; antisense) [compound 715433]”, under setting [11], the 50% inhibitory concentration (IC50) was 2.5 µM. Besides, the “% UTC 148 nM” value under setting [12] is reported as 87 % UTC. Further, the “% UTC 444 nM” value under setting [13] was 72 % UTC. For the same substance, the “% UTC 1333 nM” value under setting [14] was found to be 65 % UTC. Under setting [15], the “% UTC 4000 nM” value amounted to 40 % UTC.
In turn, “715479 (kA*kA*kA*d[5mC]*d[5mC]*dA*dT*dT*dA*dT*dT*dA*d[5mC]*kT*k[5mC]*k[5mC]; antisense) [compound 715479]” yielded an IC50 under setting [11] of over 4 µM. The “% UTC 148 nM” value under setting [12] was 98 % UTC. The “% UTC 444 nM” value under setting [13] was 80 % UTC. Also, under setting [14], the “% UTC 1333 nM” value is given as 77 % UTC. The “% UTC 4000 nM” value under setting [15] is on record as 64 % UTC.
On to “716543 (antisense kT*kA*kT*dT*dT*dG*dT*dA*dG*d[5mC]*dA*dA*dA*kG*kT*k[5mC]) [compound 716543]”, for which the “Yap1 mRNA, % UTC” value runs as follows: under setting [1], 62 % UTC; under setting [2], 99 % UTC; under setting [3], 79 % UTC; under setting [4], 64 % UTC. The substance also came in with a half-inhibitory concentration (IC50) under setting [5] of over 4 µM.
